Results from patent publication US12617795B2, “Substituted 6,7-dihydro-5H-pyrrolo[3,4-d]pyrimidines, 5,7-dihydrofuro[3,4-d]pyrimidines, and pyrido[2,3-d]pyrimidines as KCC2 modulators” (Astrazeneca AB, priority 2020, dated 2026).

Target: T1, KCC2 (Homo sapiens, UniProt Q9H2X9)
T1 construct: expressed in transfected cells; host or cells: HEK293 cells electroporated (Maxcyte STX) with the pcDNA3.1 KCC2 plasmid
T1 sequence (Q9H2X9 1-1139): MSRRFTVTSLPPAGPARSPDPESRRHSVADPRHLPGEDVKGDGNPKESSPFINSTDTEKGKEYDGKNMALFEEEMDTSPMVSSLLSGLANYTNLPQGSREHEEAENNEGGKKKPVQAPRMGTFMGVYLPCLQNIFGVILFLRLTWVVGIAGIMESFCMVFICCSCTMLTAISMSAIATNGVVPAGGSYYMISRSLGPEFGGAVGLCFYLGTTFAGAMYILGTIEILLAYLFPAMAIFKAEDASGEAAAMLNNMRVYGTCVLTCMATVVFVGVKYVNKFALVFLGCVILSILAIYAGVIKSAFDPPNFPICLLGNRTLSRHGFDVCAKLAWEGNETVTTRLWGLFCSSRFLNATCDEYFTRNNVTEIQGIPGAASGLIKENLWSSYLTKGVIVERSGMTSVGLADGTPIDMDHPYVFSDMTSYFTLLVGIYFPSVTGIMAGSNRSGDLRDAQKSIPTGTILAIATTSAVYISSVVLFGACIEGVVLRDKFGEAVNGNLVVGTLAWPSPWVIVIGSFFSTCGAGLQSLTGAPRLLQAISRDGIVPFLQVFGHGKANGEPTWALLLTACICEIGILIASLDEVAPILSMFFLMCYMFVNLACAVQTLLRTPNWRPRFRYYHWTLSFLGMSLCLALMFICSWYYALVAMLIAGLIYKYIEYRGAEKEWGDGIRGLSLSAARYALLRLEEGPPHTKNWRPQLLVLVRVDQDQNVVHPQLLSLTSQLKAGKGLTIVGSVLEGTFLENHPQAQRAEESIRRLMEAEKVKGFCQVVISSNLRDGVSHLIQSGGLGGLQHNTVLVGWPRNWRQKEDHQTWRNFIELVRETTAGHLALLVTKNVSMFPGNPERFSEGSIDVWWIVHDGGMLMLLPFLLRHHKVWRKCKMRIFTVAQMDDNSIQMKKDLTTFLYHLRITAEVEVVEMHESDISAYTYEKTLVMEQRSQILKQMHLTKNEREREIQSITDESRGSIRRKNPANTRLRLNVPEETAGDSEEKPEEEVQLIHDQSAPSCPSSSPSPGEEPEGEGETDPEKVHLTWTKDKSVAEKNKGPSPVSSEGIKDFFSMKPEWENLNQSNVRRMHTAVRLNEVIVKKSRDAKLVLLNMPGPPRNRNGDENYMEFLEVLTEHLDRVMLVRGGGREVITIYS
Test: KCC2 thallium transport FLIPR-based assay (Tl+ influx in HEK293 cells expressing KCC2)
Format: cell-based
Settings: 90 min compound incubation at RT, thallium flux at 120 s used to determine EC50
Protocol: A thallium transport FLIPR-based assay was used to measure the ability of compounds to activate KCC2. KCC2 activity is assessed by measuring KCC2-dependent Tl^+ influx in a KCC2-expressing cell. The assay protocol was based on those described by Delpire et al (Proc Natl Acad Sci USA. 2009 Mar. 31; 106(13): 5383-5388) and Zhang et al (Journal of Biomolecular Screening 15(2): 2010).
KCC2 was synthesised and codon optimised by GeneArt based on the Uniprot sequence Q9H2X9. The final sequence was subcloned into pcDNA3.1.
HEK293 cells were grown in 10 layer cell stacks at 37° C., 5% CO2, in DMEM, 10% fetal calf serum and 2 mM Glutamine. The cells were detached by removing the media and washing the cell stack with 100 ml of PBS. The PBS was removed and 100 ml of 1× TrypLE was added and the cell stack returned to 37° C. for 5 min. The detached cells were then counted in a Vi Cell counter and spun for 10 min at 1250 rpm in a Sorval Legend centrifuge. The cells were diluted down in Maxcyte electroporation buffer at 4× the final concentration and spun as before. The cell pellet was resuspended at 1×10^8/cells per ml and electroporated in a Maxcyte Cl 2.2 bag on a Maxcyte STX machine via the HEK293 programme with 200 ug/ml of plasmid DNA. The cells were then allowed to recover for 30 min before adding to 500 ml of PBS and then counted again on the Vi Cell. The cells were then frozen down in planer controlled rate freeze in 90% complete media, 10% DMSO.
All reagents were dispensed using a Mulitdrop Combi unless stated otherwise. All FluXOR Invitrogen propriety buffer compositions are mentioned in tables below.
HEK293 KCC2 cells were harvested at a density of 3.33×10^5 cells/mL in complete media (DMEM, Sigma, D6546, 10% fetal calf serum and 1% Glutamax) and 30 μL per well seeded into 384-well PDL coated black-clear plates (Corning, 354663). Leave cells at RT for 20 mins to settle before incubating for 48 h at 37° C., 5% CO2. Following incubation, perform three wash steps in HBSS (Sigma, H6648) using a Biotek cell washer with the final aspiration leaving 20 μL HBSS residual volume in each well. A further 20 μL per well of thallium loading dye is then added (1 h, RT, protect from light). 5 μL of test compounds (100 μM top concentration, 1:2 dilutions, 12 point curve) were added using the FLIPR TETRA and incubated at RT for 90 min in the dark. Following compound incubation, the thallium flux response is read on FLIPR TETRA (ex. 515-575 nm) which is initiated by FLIRR TETRA dispensing 5 μL stimulus buffer into each well. Recordings are measured every 1 second for 120 seconds. Thallium flux at 120 s used to determine EC50.
Compound buffer: Assay buffer with 1 μL of bumetanide per 10 ml.

Structure (SMILES) | EC50
COc1cc(-c2nc(Nc3ccc(C4CCCCC4)cc3)c3c(n2)C(=O)N(C(C)C)C3)ccn1 [Example 43, 4-[(4-cyclohexylphenyl)amino]-2-(2-methoxypyridin-4-yl)-6-(propan-2-yl)-5,6-dihydro-7H-pyrrolo[3,4-d]pyrimidin-7-one] | 0.738 µM
Cc1cc(-c2nc(Nc3ccc(C4CCCCC4)cc3)c3c(n2)C(=O)N(C(C)C)C3)ccn1 [Example 44, 4-[(4-cyclohexylphenyl)amino]-2-(2-methylpyridin-4-yl)-6-(propan-2-yl)-5,6-dihydro-7H-pyrrolo[3,4-d]pyrimidin-7-one] | 0.901 µM
CC(C)N1Cc2c(Nc3ccc(C4CCCCC4)cc3)nc(C3=CCOCC3)nc2C1=O [Example 45, 4-[(4-cyclohexylphenyl)amino]-2-(3,6-dihydro-2H-pyran-4-yl)-6-(propan-2-yl)-5,6-dihydro-7H-pyrrolo[3,4-d]pyrimidin-7-one] | 1.15 µM
CC(C)N1Cc2c(Nc3ccc(C4CCCCC4)cc3)nc(-c3ccncc3)nc2C1=O [Example 46, 4-[(4-cyclohexylphenyl)amino]-6-(propan-2-yl)-2-(pyridin-4-yl)-5,6-dihydro-7H-pyrrolo[3,4-d]pyrimidin-7-one] | 1.29 µM
CC(C)N1Cc2c(Nc3ccc(C4CCCCC4)cc3)nc(-c3cnn(C)c3)nc2C1=O [Example 47, 4-[(4-cyclohexylphenyl)amino]-2-(1-methyl-1H-pyrazol-4-yl)-6-(propan-2-yl)-5,6-dihydro-7H-pyrrolo[3,4-d]pyrimidin-7-one] | 3.16 µM
CC(C)N1Cc2c(Nc3ccc(C4CCCCC4)cc3)nc(-c3cnco3)nc2C1=O [Example 48, 4-[(4-cyclohexylphenyl)amino]-2-(1,3-oxazol-5-yl)-6-(propan-2-yl)-5,6-dihydro-7H-pyrrolo[3,4-d]pyrimidin-7-one] | 6.3 µM
CC(C)N1Cc2c(Nc3ccc(C4CCCCC4)cc3)nc(-c3cncs3)nc2C1=O [Example 49, 4-[(4-cyclohexylphenyl)amino]-6-(propan-2-yl)-2-(1,3-thiazol-5-yl)-5,6-dihydro-7H-pyrrolo[3,4-d]pyrimidin-7-one] | 6.3 µM
CC(C)c1ccc(Nc2nc(C3=CCOCC3)nc3c2CN(C(C)C)C3=O)cc1 [Example 50, 2-(3,6-dihydro-2H-pyran-4-yl)-6-(propan-2-yl)-4-{[4-(propan-2-yl)phenyl]amino}-5,6-dihydro-7H-pyrrolo[3,4-d]pyrimidin-7-one] | 7.98 µM
C#CCCC1(CCOc2ccc(-c3ccc(Nc4nc(N5CCOC(C6CC6)C5)nc5c4CN(C(C)C)C5=O)cc3)cc2)N=N1 (centres unmarked) [Example 54, 4-[(4′-{2-[3-(but-3-yn-1-yl)-3H-diaziren-3-yl]ethoxy}[1,1′-biphenyl]-4-yl)amino]-2-(2-cyclopropyl-morpholin-4-yl)-6-(propan-2-yl)-5,6-dihydro-7H-pyrrolo[3,4-d]pyrimidin-7-one] | 0.253 µM
CC(C)N1Cc2c(Nc3ccc(C(F)(F)C(F)(F)F)cc3)nc(N3CCOC(C4CC4)C3)nc2C1=O (centres unmarked) [Example 58, 2-(2-cyclopropylmorpholin-4-yl)-4-{[4-(pentafluoroethyl)phenyl]amino}-6-(propan-2-yl)-5,6-dihydro-7H-pyrrolo[3,4-d]pyrimidin-7-one] | 3.78 µM
CCCc1ccc(Nc2nc(N3CCOC(C4CC4)C3)nc3c2CN(C(C)C)C3=O)cc1 (centres unmarked) [Example 59, 2-(2-cyclopropylmorpholin-4-yl)-6-(propan-2-yl)-4-[(4-propylphenyl)amino]-5,6-dihydro-7H-pyrrolo[3,4-d]pyrimidin-7-one] | 4.46 µM

The next lines start with the values.

EC50 | Structure (SMILES)
0.973 µM | CC(C)N1Cc2c(Nc3ccc(Oc4ccc(F)cc4)cc3)nc(N3CCO[C@H](C)C3)nc2C1=O [Example 51, (R)-4-((4-(4-fluorophenoxy)phenyl)amino)-6-isopropyl-2-(2-methylmorpholino)-5,6-dihydro-7H-pyrrolo[3,4-d]pyrimidin-7-one]
0.146 µM | C#CCCCCCOc1ccc(-c2ccc(Nc3nc(N4CCOC(C5CC5)C4)nc4c3CN(C(C)C)C4=O)cc2)cc1 (centres unmarked) [Example 52, 2-(2-cyclopropylmorpholin-4-yl)-4-({4′-[(hept-6-yn-1-yl)oxy][1,1′-biphenyl]-4-yl}amino)-6-(propan-2-yl)-5,6-dihydro-7H-pyrrolo[3,4-d]pyrimidin-7-one]
0.215 µM | CCCCCCCOc1ccc(-c2ccc(Nc3nc(N4CCOC(C5CC5)C4)nc4c3CN(C(C)C)C4=O)cc2)cc1 (centres unmarked) [Example 53, 2-(2-cyclopropylmorpholin-4-yl)-4-{[4′-(heptyloxy)[1,1′-biphenyl]-4-yl]amino}-6-(propan-2-yl)-5,6-dihydro-7H-pyrrolo[3,4-d]pyrimidin-7-one]
2.3 µM | CCCCCc1ccc(Nc2nc(N3CCO[C@H](C)C3)nc3c2CN(C(C)C)C3=O)cc1 [Example 55, 2-[(2R)-2-methylmorpholin-4-yl]-4-[(4-pentylphenyl)amino]-6-(propan-2-yl)-5,6-dihydro-7H-pyrrolo[3,4-d]pyrimidin-7-one]
3.28 µM | CCC(C)c1ccc(Nc2nc(N3CCO[C@H](C)C3)nc3c2CN(C(C)C)C3=O)cc1 (stereo partly drawn) [Example 56, 4-{[4-(butan-2-yl)phenyl]amino}-2-[(2R)-2-methylmorpholin-4-yl]-6-(propan-2-yl)-5,6-dihydro-7H-pyrrolo[3,4-d]pyrimidin-7-one]
3.6 µM | CC(C)N1Cc2c(Nc3ccc(OCc4ccccc4)cc3)nc(N3CCO[C@H](C)C3)nc2C1=O [Example 57, 4-[(4-(benzyloxy)phenyl]amino}-2-[(2R)-2-methylmorpholin-4-yl]-6-(propan-2-yl)-5,6-dihydro-7H-pyrrolo[3,4-d]pyrimidin-7-one]
4.82 µM | CCCc1ccc(Nc2nc(N3CCO[C@H](C)C3)nc3c2CN(C(C)C)C3=O)cc1 [Example 60, 2-[(2R)-2-methylmorpholin-4-yl]-6-(propan-2-yl)-4-[(4-propylphenyl)amino]-5,6-dihydro-7H-pyrrolo[3,4-d]pyrimidin-7-one]
5.51 µM | CC(C)N1Cc2c(Nc3ccc(C(F)(F)C(F)(F)F)cc3)nc(N3CCO[C@H](C)C3)nc2C1=O [Example 61, 2-[(2R)-2-methylmorpholin-4-yl]-4-{[4-(pentafluoroethyl)phenyl]amino}-6-(propan-2-yl)-5,6-dihydro-7H-pyrrolo[3,4-d]pyrimidin-7-one]
5.66 µM | CC(C)Oc1ccc(Nc2nc(N3CCOC(C4CC4)C3)nc3c2CN(C(C)C)C3=O)cc1 (centres unmarked) [Example 62, 2-(2-cyclopropylmorpholin-4-yl)-6-(propan-2-yl)-4-({4-[(propan-2-yl)oxy]phenyl}amino)-5,6-dihydro-7H-pyrrolo[3,4-d]pyrimidin-7-one]
